Target: CB1 (CNR1) (Homo sapiens, UniProt P21554)
Experiment: cAMP CNR1 Hunter cell line antagonist assay (CB1 assay)
Assay type: cell-based
Conditions: antagonist mode, cAMP CNR1 Hunter cells, EC80 agonist; read-out: CB1 assay, Efficacy (IC50)
Description: cAMP CNR1 Hunter cell line (Eurofins DiscoveryX) were expanded from freezer stocks and seeded in a total volume of 20 μL into white walled, 384-well microplates and incubated at 37° C. for the appropriate time prior to testing. For antagonist determination, cell media was aspirated from cells and replaced with 10 μL 1:1 HBSS/Hepes:cAMP XS+Ab reagent. 5 μL of 4× compound was added to the cells and incubated at 37° C. for 30 minutes. 5 μL of 4× EC80 agonist was added to cells and incubated at 37° C. for 30 minutes. After appropriate compound incubation, assay signal was generated through incubation with 20 μL cAMP XS+ED/CL lysis cocktail for one hour followed by incubation with 20 μL cAMP XS+EA reagent for three hours at room temperature. Microplates were read following signal generation with a PerkinElmer Envision™ instrument for chemiluminescent signal detection. Compound activity (IC50) was analyzed using CBIS data analysis suite (ChemInnovation, CA).

Sequence of CB1 (CNR1) (P21554 whole entry): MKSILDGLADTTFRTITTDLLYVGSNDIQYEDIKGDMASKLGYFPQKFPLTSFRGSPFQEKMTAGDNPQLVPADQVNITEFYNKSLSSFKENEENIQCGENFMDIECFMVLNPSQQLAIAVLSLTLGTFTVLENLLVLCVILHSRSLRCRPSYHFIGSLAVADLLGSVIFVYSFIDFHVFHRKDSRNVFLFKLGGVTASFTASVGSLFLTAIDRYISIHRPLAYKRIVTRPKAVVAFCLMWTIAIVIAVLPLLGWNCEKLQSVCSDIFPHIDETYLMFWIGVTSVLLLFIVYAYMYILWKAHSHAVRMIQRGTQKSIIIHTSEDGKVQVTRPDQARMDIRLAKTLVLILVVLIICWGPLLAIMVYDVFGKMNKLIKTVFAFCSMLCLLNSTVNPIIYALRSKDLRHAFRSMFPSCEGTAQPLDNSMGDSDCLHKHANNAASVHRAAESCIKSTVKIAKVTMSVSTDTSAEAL

Compound | IC50 [µM]
O=C1COc2cc(S(=O)(=O)NCc3ccc(OC(F)(F)F)cc3)c(Br)cc2N1 [BC19392] | ≥ 25
Cc1ccc(NS(=O)(=O)c2cc(Cl)cc3c2OC(C)C(=O)N3)cc1F (centres unmarked) [BC19701] | 1 to 25
Cc1ccc(NS(=O)(=O)c2cc(S(C)(=O)=O)cc3c2OCC(=O)N3)cc1Cl [BC19486] | ≥ 25
CCNS(=O)(=O)c1cc(Cl)cc2c1OC(C)C(=O)N2 (centres unmarked) [BC19294] | 1 to 25
COc1ccc(NS(=O)(=O)c2cc(Br)cc3c2OCCNC3=O)cc1Cl [BC19614] | ≥ 25
CC(C)CC1Oc2cc(S(=O)(=O)Nc3ccc(F)cc3F)c(Br)cc2NC1=O (centres unmarked) [BC19770] | ≥ 25
O=C1CCOc2cc(S(=O)(=O)Nc3ccccc3)c(Br)cc2N1 [BC19689] | ≥ 25
COc1ccc(NS(=O)(=O)c2cc3c(cc2Br)NC(=O)C(CC(C)C)O3)cc1Cl (centres unmarked) [BC19780] | 1 to 25
CCC1Oc2cc(S(=O)(=O)Nc3ccc(C)c(F)c3)c(Br)cc2N(C)C1=O (centres unmarked) [BC19924] | 1 to 25
CCC1Oc2c(cc(Br)cc2S(=O)(=O)NCc2ccccc2)NC1=O (centres unmarked) [BC19230] | ≥ 25
CC(C)CC(=O)N1c2cc(S(=O)(=O)N3CCCC3)ccc2NC(=O)C1C (centres unmarked) [BC19184] | 1 to 25
CCc1cccc(NS(=O)(=O)c2cc(Cl)cc3c2OC(CC)C(=O)N3)c1 (centres unmarked) [BC19750] | ≥ 25
O=C1NCCOc2c1cc(Br)cc2S(=O)(=O)Nc1cccc(Cl)c1 [BC19611] | ≥ 25
CCOc1ccc(NS(=O)(=O)c2cc3c(cc2Br)NC(=O)CO3)cc1 [BC19135] | 1 to 25
Cc1ccc(NS(=O)(=O)c2cc(Cl)cc3c2OC(C)C(=O)N3)cc1 (centres unmarked) [BC19718] | ≥ 25
CC1Oc2cc(S(=O)(=O)Nc3ccc(OC(F)(F)F)cc3)c(Br)cc2N(C)C1=O (centres unmarked) [BC19784] | ≥ 25
Cc1ccc(NS(=O)(=O)c2cc(Br)cc3c2OC(C)C(=O)N3)cc1Cl (centres unmarked) [BC19225] | ≥ 25
CC(C)CC1Oc2c(cc(Br)cc2S(=O)(=O)Nc2ccc(OC(F)(F)F)cc2)NC1=O (centres unmarked) [BC19757] | ≥ 25
CCc1ccc(NS(=O)(=O)c2cc(S(C)(=O)=O)cc3c2OCC(=O)N3)cc1 [BC19484] | ≥ 25
COc1ccc(NS(=O)(=O)c2cc3c(cc2Br)NC(=O)CO3)cc1Cl [BC19163] | < 1
CC1Oc2c(cc(Cl)cc2S(=O)(=O)Nc2ccc(F)cc2F)NC1=O (centres unmarked) [BC19710] | ≥ 25
CCC1Oc2cc(S(=O)(=O)Nc3ccc(C)cc3)c(Br)cc2NC1=O (centres unmarked) [BC19224] | ≥ 25

Compound | IC50 [µM]
CC1Oc2cc(S(=O)(=O)Nc3cccc(Cl)c3)c(Br)cc2N(C)C1=O (centres unmarked) [BC19905] | ≥ 25
Cc1ccc(Cl)cc1NS(=O)(=O)c1cc2c(cc1Cl)NC(=O)CO2 [BC19162] | < 1
CN1CC(=O)Nc2ccc(S(=O)(=O)N3CCCC3)cc21 [BC19181] | ≥ 25
CC1Oc2cc(S(=O)(=O)Nc3ccc(C#N)cc3)c(Cl)cc2NC1=O (centres unmarked) [BC19729] | < 1
CCS(=O)(=O)c1cc2c(c(S(=O)(=O)Nc3ccc(F)cc3)c1)OCC(=O)N2 [BC19443] | ≥ 25
COc1ccc(NS(=O)(=O)c2cc(Cl)cc3c2OC(C)C(=O)N3)cc1Cl (centres unmarked) [BC19292] | 1 to 25
CCS(=O)(=O)c1cc2c(c(S(=O)(=O)Nc3ccc(F)c(F)c3)c1)OCC(=O)N2 [BC19421] | ≥ 25
CC(C)CNS(=O)(=O)c1cc2c(cc1Br)NC(=O)C(C)O2 (centres unmarked) [BC19218] | 1 to 25
Cc1ccc(NS(=O)(=O)c2cc3c(cc2Br)N(C)C(=O)C(C)O3)cc1F (centres unmarked) [BC19786] | ≥ 25
CC1Oc2c(cc(Br)cc2S(=O)(=O)N2CCN(C)CC2)NC1=O (centres unmarked) [BC19228] | 1 to 25
CCC1Oc2c(cc(Br)cc2S(=O)(=O)NC2CCC(C(C)(C)C)CC2)NC1=O (centres unmarked) [BC19379] | 1 to 25
CC(C)CC1Oc2c(cc(Br)cc2S(=O)(=O)Nc2cccc(F)c2)NC1=O (centres unmarked) [BC19773] | 1 to 25
CC(C)CC1Oc2cc(S(=O)(=O)Nc3ccc(C(C)C)cc3)c(Br)cc2NC1=O (centres unmarked) [BC19766] | ≥ 25
CC1Nc2cc(S(=O)(=O)N3CCCC3)ccc2NC1=O (centres unmarked) [BC19235] | ≥ 25
CCc1cccc(NS(=O)(=O)c2cc3c(cc2Cl)NC(=O)C(C)O3)c1 (centres unmarked) [BC19711] | ≥ 25
CCC1Oc2c(cc(Br)cc2S(=O)(=O)Nc2ccc(C)c(F)c2)N(C)C1=O (centres unmarked) [BC19923] | ≥ 25
O=C1COc2c(cc(Br)cc2S(=O)(=O)NCc2ccc(F)cc2F)N1 [BC19386] | ≥ 25
CCC1Oc2c(cc(Br)cc2S(=O)(=O)Nc2cccc(Cl)c2)NC1=O (centres unmarked) [BC19232] | ≥ 25
Cc1ccc(NS(=O)(=O)c2cc3c(cc2Br)NC(=O)CCO3)cc1 [BC19661] | < 1
CCc1ccc(NS(=O)(=O)c2cc(Cl)cc3c2OC(CC)C(=O)N3)cc1 (centres unmarked) [BC19742] | 1 to 25
CC(C)CC1Oc2c(cc(Br)cc2S(=O)(=O)Nc2ccc(C(C)C)cc2)NC1=O (centres unmarked) [BC19765] | ≥ 25
CC(C)CC1Oc2c(cc(Br)cc2S(=O)(=O)Nc2ccc(F)cc2Cl)NC1=O (centres unmarked) [BC19777] | ≥ 25

Compound | IC50 [µM]
O=C1COc2cc(S(=O)(=O)Nc3ccccc3)c(Cl)cc2N1 [BC19161] | < 1
CC(C)CC1Oc2c(cc(Br)cc2S(=O)(=O)Nc2ccc(F)c(F)c2)NC1=O (centres unmarked) [BC19759] | 1 to 25
Cc1ccc(Cl)cc1NS(=O)(=O)c1cc(Cl)cc2c1OCC(=O)N2 [BC19170] | 1 to 25
CC1Oc2c(cc(Cl)cc2S(=O)(=O)Nc2ccc(C(C)C)cc2)NC1=O (centres unmarked) [BC19705] | 1 to 25
CCC1Oc2c(cc(Cl)cc2S(=O)(=O)Nc2ccc(F)cc2)NC1=O (centres unmarked) [BC19732] | 1 to 25
O=C1CCOc2cc(S(=O)(=O)Nc3cccc(F)c3)c(Br)cc2N1 [BC19654] | ≥ 25
CCC1Oc2c(cc(Cl)cc2S(=O)(=O)Nc2ccccc2)NC1=O (centres unmarked) [BC19738] | < 1
CCC1Oc2cc(S(=O)(=O)Nc3ccc(OC(F)(F)F)cc3)c(Cl)cc2NC1=O (centres unmarked) [BC19733] | 1 to 25
CC(C)CC1Oc2cc(S(=O)(=O)Nc3ccc(F)c(F)c3)c(Br)cc2NC1=O (centres unmarked) [BC19760] | 1 to 25
CC(C)CC1Oc2cc(S(=O)(=O)Nc3cccc(Cl)c3)c(Br)cc2NC1=O (centres unmarked) [BC19776] | ≥ 25
O=C1COc2c(cc(Br)cc2S(=O)(=O)NCCc2ccc(OC(F)(F)F)cc2)N1 [BC19383] | ≥ 25
Cc1ccc(NS(=O)(=O)c2cc(Br)cc3c2OCCNC3=O)cc1Cl [BC19607] | 1 to 25
CC(C)NC(=O)N1c2cc(S(=O)(=O)N3CCCC3)ccc2NC(=O)C1C (centres unmarked) [BC19298] | ≥ 25
CCC1Oc2cc(S(=O)(=O)Nc3ccc(C(F)(F)F)cc3Cl)c(Br)cc2NC1=O (centres unmarked) [BC19371] | ≥ 25
CC1Oc2cc(S(=O)(=O)Nc3ccc(F)c(F)c3)c(Br)cc2N(C)C1=O (centres unmarked) [BC19788] | 1 to 25
Cc1ccc(NS(=O)(=O)c2cc(Br)cc3c2OC(C)C(=O)N3C)cc1Cl (centres unmarked) [BC19796] | 1 to 25
CCc1cccc(NS(=O)(=O)c2cc3c(cc2Cl)NC(=O)C(CC)O3)c1 (centres unmarked) [BC19749] | 1 to 25
CC(=O)N1CC(=O)Nc2ccc(S(=O)(=O)N3CCCC3)cc21 [BC19295] | ≥ 25
CCC1Oc2c(cc(Br)cc2S(=O)(=O)Nc2ccc(C)cc2)NC1=O (centres unmarked) [BC19234] | ≥ 25
CCc1cccc(NS(=O)(=O)c2cc(Br)cc3c2OC(CC(C)C)C(=O)N3)c1 (centres unmarked) [BC19771] | 1 to 25
CCC1Oc2c(cc(Cl)cc2S(=O)(=O)Nc2ccc(Cl)cc2)NC1=O (centres unmarked) [BC19740] | 1 to 25
COc1ccc(NS(=O)(=O)c2cc(Br)cc3c2OCCNC3=O)cc1 [BC19606] | ≥ 25

Compound | IC50 [µM]
CCc1cccc(NS(=O)(=O)c2cc(Br)cc3c2OC(C)C(=O)N3C)c1 (centres unmarked) [BC19900] | ≥ 25
CCC1Oc2c(cc(Cl)cc2S(=O)(=O)Nc2cccc(Cl)c2)NC1=O (centres unmarked) [BC19752] | 1 to 25
CCc1cccc(NS(=O)(=O)c2cc3c(cc2Br)NC(=O)CO3)c1 [BC19167] | < 1
CNC(=O)N1CC(=O)Nc2ccc(S(=O)(=O)N3CCCC3)cc21 [BC19183] | 1 to 25
CCC1Oc2c(cc(Br)cc2S(=O)(=O)NCCc2ccc(OC(F)(F)F)cc2)NC1=O (centres unmarked) [BC19376] | 1 to 25
O=C1CCOc2c(cc(Br)cc2S(=O)(=O)Nc2ccc(OC(F)(F)F)cc2)N1 [BC19648] | ≥ 25
O=C1NCCOc2c1cc(Br)cc2S(=O)(=O)Nc1cccc(F)c1 [BC19610] | 1 to 25
O=C1COc2cc(S(=O)(=O)NCc3ccc(F)cc3F)c(Br)cc2N1 [BC19393] | ≥ 25
CC1Oc2c(cc(Cl)cc2S(=O)(=O)Nc2ccc(OC(F)(F)F)cc2)NC1=O (centres unmarked) [BC19394] | ≥ 25
CC1Oc2c(cc(Cl)cc2S(=O)(=O)Nc2ccccc2)NC1=O (centres unmarked) [BC19291] | ≥ 25
Cc1ccc(NS(=O)(=O)c2cc3c(cc2Br)NC(=O)C(CC(C)C)O3)cc1Cl (centres unmarked) [BC19768] | 1 to 25
CC1Oc2cc(S(=O)(=O)Nc3ccc(F)cc3)c(Cl)cc2NC1=O (centres unmarked) [BC19721] | < 1
Cc1ccc(NS(=O)(=O)c2cc(Br)cc3c2OC(C)C(=O)N3C)cc1F (centres unmarked) [BC19785] | ≥ 25
O=C1CCOc2cc(S(=O)(=O)Nc3ccc(OC(F)(F)F)cc3)c(Br)cc2N1 [BC19652] | ≥ 25
O=C1COc2c(cc(Br)cc2S(=O)(=O)NC2CCC(O)CC2)N1 (centres unmarked) [BC19381] | ≥ 25
CC1Oc2cc(S(=O)(=O)NCc3ccc(OC(F)(F)F)cc3)c(Br)cc2NC1=O (centres unmarked) [BC19357] | 1 to 25
CCc1ccc(NS(=O)(=O)c2cc(Br)cc3c2OCCNC3=O)cc1 [BC19604] | 1 to 25
CC1Oc2cc(S(=O)(=O)Nc3ccc(C(C)C)cc3)c(Br)cc2N(C)C1=O (centres unmarked) [BC19794] | ≥ 25
O=C1CCOc2cc(S(=O)(=O)Nc3ccc(Cl)cc3)c(Br)cc2N1 [BC19656] | ≥ 25
CCC1Oc2c(cc(Br)cc2S(=O)(=O)Nc2ccc(C(C)C)cc2)N(C)C1=O (centres unmarked) [BC19933] | ≥ 25

Source: patent publication US20240000806A1, “METHODS AND MATERIALS FOR INHIBITING CB1 ACTIVITY” (University of Pittsburgh - Of the Commonwealth System of …, priority 2020, published 2024)
